We go through six molecules from ChEMBL document CHEMBL5034044, “Novel Compounds for Targeted Degradation of BRD9 and Their Use for Treating Cancer” (ACS Med Chem Lett, 2022).

The structures appear in SMILES notation. Some results are limits rather than exact numbers.

This assay has as its target T1, Bromodomain-containing protein 9 (Homo sapiens, UniProt Q9H8M2).
T1 sequence (Q9H8M2 whole entry): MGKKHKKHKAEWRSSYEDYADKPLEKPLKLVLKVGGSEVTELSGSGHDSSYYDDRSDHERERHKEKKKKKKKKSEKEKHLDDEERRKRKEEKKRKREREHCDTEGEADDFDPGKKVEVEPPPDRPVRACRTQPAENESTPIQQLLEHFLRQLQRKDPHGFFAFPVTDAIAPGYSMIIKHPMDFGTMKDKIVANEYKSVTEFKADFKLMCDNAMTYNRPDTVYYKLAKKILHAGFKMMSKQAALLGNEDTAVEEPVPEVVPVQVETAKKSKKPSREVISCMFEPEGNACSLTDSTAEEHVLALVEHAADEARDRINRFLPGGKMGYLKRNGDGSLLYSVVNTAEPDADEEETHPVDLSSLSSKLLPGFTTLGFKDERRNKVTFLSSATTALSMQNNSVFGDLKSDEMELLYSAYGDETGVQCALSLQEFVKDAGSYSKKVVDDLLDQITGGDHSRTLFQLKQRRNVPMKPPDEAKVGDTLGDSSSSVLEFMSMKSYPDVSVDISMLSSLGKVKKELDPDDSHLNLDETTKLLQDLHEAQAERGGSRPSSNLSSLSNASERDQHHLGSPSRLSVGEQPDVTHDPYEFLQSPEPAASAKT
Kind of assay: Induction of degradation of BRD9 (unknown origin) assessed as protein degradation measured after 2 hrs by HiBit Lytic assay. On the technique in general: HiBiT is a short tag that completes a luciferase, so light tracks the accessible tagged protein.

With `COc1cc(-c2cn(C)c(=O)c(C)c2C)cc(Cl)c1CN1CCC(N2CCN(c3ccc(NC4CCC(=O)NC4=O)cc3F)CC2)C(F)(F)C1` (stereo unspecified), the half-maximal degradation concentration (DC50) (usually the midpoint of the concentration-degradation curve) was less than 100 nM.
In the case of `COc1cc(-c2cn(C)c(=O)c(C)c2C)cc(OC)c1CN1CCN(C(=O)CC2CCN(c3ccc(NC4CCC(=O)NC4=O)cc3C(F)(F)F)CC2)CC12CC2` (stereo unspecified) it was less than 100 nM; in that of `CC(c1ccc(-c2cn(C)c(=O)c3cc(F)ccc23)cc1OC(F)(F)F)N1CCC(C2CCN(c3ccc(NC4CCC(=O)NC4=O)cc3F)CC2)CC1` (stereo unspecified), less than 100 nM.
With `COc1cc(-c2cn(C)c(=O)c3[nH]ncc23)cc(OC)c1CN1CCc2c(CN3CCC(c4ccc(NC5CCC(=O)NC5=O)cc4)C(F)(F)C3)csc2C1` (stereo unspecified), the DC50 is less than 100 nM.
As for `COc1cc(-c2cn(C)c(=O)c3cnccc23)c(Cl)cc1CN1CCC(N2CCN(c3ccc(NC4CCC(=O)NC4=O)cc3F)CC2)C(F)(F)C1` (stereo unspecified), the half-maximal degradation concentration (DC50) is less than 100 nM.
On to `COc1cc(-c2cn(C)c(=O)c3[nH]ncc23)cc(OC)c1CN1CCC2(CC1)CN(C(=O)CN1CCC(c3ccc(NC4CCC(=O)NC4=O)cc3)CC1)C2` (stereo unspecified), for which the DC50 was less than 100 nM.
